Test results from patent publication US20220297126A1, “Microfluidic Pipette Aspirators for Large-Scale Analysis of Single Cells, Clusters and Their Sub-Populations” (Texas Tech University System, priority 2019, published 2022).
Structures can show the parent of a compound that is named as a salt.

How the values were obtained:
Format in all cases: cell-based
MB-231 single cells = test: Proliferation of single cells in the microfluidic device in the presence of Dox
Description: (§1) Drug Assays. Drug assays were conducted on the tumor cells trapped in the microfluidic device. Food and Drug Administration (FDA) approved chemotherapeutic medication Doxorubicin hydrochloride (Dox, Sigma Aldrich) was used on these cells. Dox was diluted with WFI (water for injection) for cell culture (Gibco) to make a 1 mM Dox solution and it was stored at 4° C. This stock solution of Dox was diluted to 100 μM using DMEM, and further 10-fold serial dilutions were done using DMEM or 1× Annexin Binding Buffer (Life technologies) to obtain the desired concentrations of 100 μM, 10 μM, 1 μM, 0.1 μM, 0.01 μM and 0.001 μM. For all experiments, Dox was prepared freshly by diluting it to 100 μM using DMEM and further dilutions were done to achieve the desired concentrations of Dox. The mixing of Dox with the cell samples and loading them in the microfluidic device was done within 2 minutes, followed by imaging of the loaded sample in the microfluidic device. After imaging the microfluidic device, it was incubated in 37° C. and 5% CO2 environment.
(§2) Experimental Protocol. The experimental setup for single cell isolation consists of the microfluidic device, 200 μL single channel pipette (Eppendorf) and a motorized inverted system microscope (Olympus IX81). A sample of 2000 cells in 100 μL was loaded in the 6 mm reservoir (inlet) in the microfluidic device. A 200 μL single channel pipette was set at the 1 mm outlet and it was used to aspirate the cell sample. Flow is generated from the inlet reservoir due to the aspiration pressure and passes through the trapping array. As soon as a cell enters into the parking spots, it gets trap there due to the obstacle pillar. This setup is shown the by schematic in FIG. 2A.
(§3) The MCF-7 cells are tagged using a green fluorescent dye CMFDA (Life technologies) and are trapped in the microfluidic device using the same protocol. […] Media was added in the hydrodynamic height added on the reservoir to keep the cells from getting displaced from the parking spots. All the cell samples including the drug treated cells were handled with the same experimental procedure. The loading time of the cells after cell sample preparation is ˜5 seconds. The hydrodynamic height for the drug treated samples was given by media of corresponding drug concentration.
(§4) Cell staining, viability and apoptosis detection. Proliferation of cells in the microfluidic chip was monitored using CellTracker™ Green CMFDA dye (Life technologies). These counts were validated without staining and by using NucBlue™ Live ReadyProbes™ Reagent (Life technologies) to identify the cell nuclei and thus quantifying the cell counts. LIVE/DEAD® Cell Imaging Kit (Life technologies) was used to analyze viability of cells. The stain was made according to the manufacturer's protocol and was used to identify the live and dead cells. Alexa Fluor® 488 Annexin V (Life technologies) was used for detection of apoptosis. The cell sample and Dox dilution was done using 1× Annexin Binding Buffer (Life technologies). 100 μL of sample was prepared (80 μL cell sample+10 μL Annexin V+10 μL Dox) for conducting drug assays. The final concentrations of the Dox in 100 μL sample were 0.01 μM, 0.001 μM and 0.0001 μM. This sample was incubated at 37° C. and 5% CO2 for 30 minutes before loading in the microfluidic device. The images were taken at different time points for different studies. The microfluidic device was stored in the incubator at 37° C. and 5% CO2 between different image time points.
(§5) To understand the effect of different concentrations of dox on viability of single cells, the inventors conducted a dose response cell viability assay in the microfluidic device. […] From this viability curve, three concentrations were selected to study the proliferation potential of drug resistant MCF-7 and MB-231 single cells. As the […] on the proliferation rate, the lowest three concentrations were selected for this study. […]

MCF-7 single cells = test: as above; conditions: time not restated (period of 48 hours)
Description: as §1, §2, §3, §4, §5

MB-231 cells = test: Identifying the state of drug treated cells (apoptotic, non-proliferating/quiescent, proliferating) in the microfluidic device; conditions: for cells identified as quiescent: 48 hours
Description: as §1, §4
(§6) Identifying the state of drug treated cells. […] These single cells can exist in an apoptotic state or a non-proliferative (quiescent) state. Thus, identifying the state of the cell can give overall information about the drug resistance of cancer cells.
(§7) The apoptotic cells are dead cells; and the non-proliferating cells are the drug resistant cells which are live and have very low proliferative potential. The proliferating cells are also drug resistant cells, which multiply despite of the presence of drug. The drug response for these trapped cells is assessed at 0, 6, 12, 24, 48 hours at 0.01 μM, 0.001 μM and 0.0001 μM concentrations of Dox.
(§8) At the end of 48 hours, the non-proliferative cells were identified as quiescent cells. […] Similarly, 23%, 34% and 10% of cells were identified as quiescent for 0.01 μM, 0.001 μM and 0.0001 μM of dox and MB-231.

MCF-7 cells = test: as above; conditions: for cells identified as quiescent: 48 hours
Description: as §1, §4, §6, §7, §8

MB231 cells = test: Mechanical characterization (Young's modulus) of drug treated cells in the μFPA device; conditions: FIG. 12A
Description: Total 1440 traps, 150 μL Inlet reservoir, Aspiration channel dimension 5×5×35 μm^3. In these figures, a schematic of the complete design. It has an inlet reservoir for holding cell sample. The inlet channel divides into 8 channels and all of them have dead ends. Aspiration traps are place on both sides of the inlet channels. Outlets of two aspiration arrays comes into an outlet channel. Except the first and last outlet channel where a single aspiration has outlets. It has total 1440 traps. This is the snapshot of the PDMS device. In the SEM image you can have a sense of the larger dimension of inlet and outlet channels compared to the aspiration channels.
FIGS. 10A to 10C show the mechanical characterization of cells in the device of the present invention.
FIGS. 12A and 12B show the sensitivity of different cells (MB231 and MCF7) to different drugs (blebbistatin and paclitaxel), and the Young's modulus of the cells. […] Also, cell cycle phases have altered cytoskeletal scaffold. Thus, the μFPA device is sensitive enough to measure cytoskeletal alterations caused by drug interventions and cell cycle phase.

| Structure (SMILES) | cells proliferated (MB-231 single cells; MB-231, 0.0001 μM dox, time not restated (period of 48 hours)) | cells proliferated (MB-231 single cells; MB-231, 0.001 μM dox, time not restated (period of 48 hours)) | cells proliferated (MB-231 single cells; MB-231, 0.01 μM dox, at the end of 48 hours) | cells proliferated (MB-231 single cells; MB-231, 0.01 μM dox, in 24 hours) | cells underwent proliferation (MCF-7 single cells; MCF-7, 0.0001 μM Dox) | cells underwent proliferation (MCF-7 single cells; MCF-7, 0.001 μM Dox) | cells underwent proliferation (MCF-7 single cells; MCF-7, 0.01 μM Dox) | cells show drug resistance (MB-231 cells; MB-231, 0.0001 μM dox) | cells identified as quiescent (MB-231 cells; MB-231, 0.0001 μM dox) | cells show drug resistance (MB-231 cells; MB-231, 0.001 μM dox) | cells identified as quiescent (MB-231 cells; MB-231, 0.001 μM dox) | cells show drug resistance (MB-231 cells; MB-231, 0.01 μM dox) | cells identified as quiescent (MB-231 cells; MB-231, 0.01 μM dox) | cells show drug resistance (MCF-7 cells; MCF-7, 0.0001 μM dox) | cells identified as quiescent (MCF-7 cells; MCF-7, 0.0001 μM dox) | cells show drug resistance (MCF-7 cells; MCF-7, 0.001 μM dox) | cells identified as quiescent (MCF-7 cells; MCF-7, 0.001 μM dox) | cells show drug resistance (MCF-7 cells; MCF-7, 0.01 μM dox) | cells identified as quiescent (MCF-7 cells; MCF-7, 0.01 μM dox) | cytoskeletal alteration seen as Young's modulus of the cells vs control (MB231 cells) |
| --- | --- | --- | --- | --- | --- | --- | --- | --- | --- | --- | --- | --- | --- | --- | --- | --- | --- | --- | --- | --- |
| COc1cccc2c1C(=O)c1c(O)c3c(c(O)c1C2=O)C[C@@](O)(C(=O)CO)C[C@@H]3O[C@H]1C[C@H](N)[C@H](O)[C@H](C)O1 [Dox, Doxorubicin hydrochloride] | ~70% | ~50% | ~40% | ~20% | ~80% | ~60% | ~45% | ~85% | 10% | ~80% | 34% | ~60% | 23% | ~90% | 6% | ~75% | 10% | ~60% | 8% |  |
| Cc1ccc2c(c1)C(=O)C1(O)CCN(c3ccccc3)C1=N2 (stereo not drawn) [blebbistatin] |  |  |  |  |  |  |  |  |  |  |  |  |  |  |  |  |  |  |  | cytoskeletal alternations in MB231 are induced |
| CC(=O)O[C@H]1C(=O)[C@@]2(C)[C@H]([C@H](OC(=O)c3ccccc3)[C@]3(O)C[C@H](OC(=O)[C@H](O)[C@@H](NC(=O)c4ccccc4)c4ccccc4)C(C)=C1C3(C)C)[C@]1(OC(C)=O)CO[C@@H]1C[C@@H]2O [paclitaxel] |  |  |  |  |  |  |  |  |  |  |  |  |  |  |  |  |  |  |  | cytoskeletal alternations in MB231 are induced |
